Results reported in patent US20100136022A1, “METHOD FOR MODULATING THE IMMUNE RESPONSE BY ACTIVATING OR INACTIVATING THE NOTCH AND/OR STAT4 SIGNAL PATH” (DEUTSCHES RHEUMA-FORSCHUNGSZENTRUM BERLIN, priority 2007, published 2010).

What was measured:
[1] = test system: CD11c-positive dendritic cells; experiment: Expression of Notch ligands in dendritic cells after TLR stimulation (Example 10); format: cell-based, mice; details: stimulation for 15 h; 50 μg/ml pIC, 1 μg/ml LPS, 1 μg/ml flagellin or 1 μM CpG; FIG. 11
Description: CD11c-positive dendritic cells were isolated from spleen and lymphatic nodes of naive mice using flow cytometry and stimulated with 50 μg/ml pIC (TLR3), 1 μg/ml LPS (TLR4), 1 μg/ml flagellin (TLR5) or 1 μM CpG (TLR9) for 15 h.

[2] = test system: Notch; experiment: IL-10 expression in lymphatic node cells after transfer of OVA-specific Th cells and OVA/CpG immunization (Example 12); format: in vivo; details: mice received 10 μM/kg; lymphatic node cells after 5 days; FIG. 13
Description: 1·10^7 antigen specific (OVA-TZR transgenic) naive Th cells were transferred into recipient mice which were subsequently immunized s.c. with 50 μg of OVA/20 μg of CpG. After 5 days the lymphatic node cells were restimulated with PMA/ionomycin and analyzed using intracellular cytokine staining. IFN-γ/IL-10 double-positive cells were induced under these conditions. The expression of IL-10 was blocked in mice which had received 10 μM/kg of a Notch inhibitor (γ-secretase inhibitor, DBZ, Syncom) (FIG. 13).

[3] = test system: Notch signaling pathway; experiment: IL-10 induction in T helper cells cocultured with A20-B cells expressing Notch ligands DII-1 or DII-4 (Example 9); format: cell-based, mouse; details: 125 nM inhibitor; IL-12 10 ng/ml, OVA peptide, 5 days, intracellular staining; FIG. 10A
Description: Antigen-specific (OVA-TZR transgenic) naive CD4+CD25-CD62L+T helper cells were isolated using flow cytometry, cultured with A20-B cells (at a ratio of 2:1) in the presence of IL-12 (10 ng/ml), which cells express the Notch ligands DII-1 or DII-4, and stimulated with OVA peptide (0.2 μg/ml). After 5 days the cells were restimulated with PMA/ionomycin, and their cytokine expression was analyzed using intracellular staining.
This induction can be blocked in a specific manner by an inhibitor of the Notch signaling pathway (γ-secretase inhibitor, 125 nM Insolution γ-secretase inhibitor X, Calbiochem) (FIG. 10A). Further coculturing in the presence of the DII-1 and DII-4 ligands dramatically increases the IL-10 production (FIG. 10B).

[4] = test system: Notch signaling pathway; experiment: IL-10 induction in T helper cells cultured with CD11c+ dendritic cells, IL-12 and/or CpG (Example 11); format: cell-based, mouse; details: 125 nM inhibitor, OVA peptide, 5 days, FIG. 12
Description: Antigen-specific (OVA-TZR transgenic) naive CD4+CD25-CD62L+T helper cells were isolated using flow cytometry, cultured with CD11c+ dendritic cells from spleen and lymphatic nodes (at a ratio of 20:1) in the presence of IL-12 (10 ng/ml) and/or 1 μM CpG and stimulated with OVA peptide (0.2 μg/ml). After 5 days the cells were restimulated with PMA/ionomycin, and their cytokine expression was analyzed using intracellular staining.
The expression of IL-10 can be blocked by a specific inhibitor of the Notch signaling pathway (γ-secretase inhibitor, Calbiochem, 125 nM).

[5] = test system: Notch signaling pathway; experiment: IL-10 expression of human T cells cocultured with plasmacytoid or myeloid dendritic cells (Example 15); format: cell-based; details: 85 nM inhibitor, SEB 1 μg/ml, 6 days
[6] = test system: STAT4; experiment: IL-10 production (ELISA) of Notch3IC-transduced Th cells cultured with interleukin 27 (Example 5); format: cell-based, mice; details: 10 ng/ml interleukin 27, wild-type vs STAT4-deficient, FIG. 6
Description: Naive CD4+-CD25-CD62L+T helper cells from wild-type (C57BU6) or STAT4-deficient mice were isolated using flow cytometry. The cells were subsequently cultured with irradiated (30 Gy) MHCII+ antigen-presenting cells at a ratio of 1:4 in the presence of interleukin 27 (10 ng/ml). Stimulation was effected polyclonally using 0.5 μg/ml anti-CD3 and 1 μg/ml anti-CD28. After 24 h the cells were retro-virally transduced with active Notch3 (Notch3IC). To this end, the cells were centrifuged with virus supernatant for 75 min at 750×g and 32° C. After 5 days the cells were restimulated with PMA/ionomycin, and their cytokine production was analyzed using ELISA.
No IL-10 production is observed in the event of STAT4-deficient cells.

flagellin
Expression of Delta-like 1 [1]: largely unchanged | Expression of Jagged 1 [1]: largely unchanged | expression of the Delta-like 4 Notch ligand [1]: enhanced

C[C@H](NC(=O)Cc1cc(F)cc(F)c1)C(=O)N[C@@H]1C(=O)N(C)c2ccccc2-c2ccccc21 [DBZ]
expression of IL-10 (IFN-γ/IL-10 double-positive cells) [2]: blocked

CC(C)C[C@H](NC(=O)[C@H](Cc1ccccc1)C[C@@H](O)[C@H](Cc1ccccc1)NC(=O)OC(C)(C)C)C(=O)N[C@@H](Cc1ccccc1)C(N)=O [Insolution γ-secretase inhibitor X]
IL-10 production induced by coculturing with Delta-like ligands [3]: blocked | expression of IL-10 in the T cells [4]: blocked | IL-10 expression, naive T cells cocultured with plasmacytoid dendritic cells ([5]; FIG. 16A): blocked | IL-10 production, memory T cells cocultured with plasmacytoid or myeloid dendritic cells ([5]; FIG. 16B): blocked in either case

B1: IL-27: STAT4-activating cytokine of the IL-12 family (protein, UniProt Q8NEV9 29-243; Q14213 21-229, looked up)
Interleukin-27 subunit alpha: FPRPPGRPQLSLQELRREFTVSLHLARKLLSEVRGQAHRFAESHLPGVNLYLLPLGEQLPDVSLTFQAWRRLSDPERLCFISTTLQPFHALLGGLGTQGRWTNMERMQLWAMRLDLRDLQRHLRFQVLAAGFNLPEEEEEEEEEEEEERKGLLPGALGSALQGPAQVSWPQLLSTYRLLHSLELVLSRAVRELLLLSKAGHSVWPLGFPTLSPQP
Interleukin-27 subunit beta: RKGPPAALTLPRVQCRASRYPIAVDCSWTLPPAPNSTSPVSFIATYRLGMAARGHSWPCLQQTPTSTSCTITDVQLFSMAPYVLNVTAVHPWGSSSSFVPFITEHIIKPDPPEGVRLSPLAERQLQVQWEPPGSWPFPEIFSLKYWIRYKRQGAARFHRVGPIEATSFILRAVRPRARYYVQVAAQDLTDYGELSDWSLPATATMSLGK
IL-10 production together with Notch, STAT4-dependent [6]: induction of IL-10
